# Values joined by “and” are separate entries in the source; they are usually repeats but may differ in a detail not shown here. Identical values can stand only once. Like-named read-outs stand apart in the source and are kept apart here.
# Tests used:
# in vitro [1] = details: pig, LLC-PK1 MOCK cell monolayer (Transwell), pH 7.4
# P-gp (human MDR1) = assay: Bidirectional transport across LLC-PK1-MDR1 monolayer stably expressing human MDR1 (P-gp) (Transwell); details: pig; for efflux ratio at 2 h, 2 µM: LLC-PK1, pH 7.4, ER, LLC-PK1-MDR1, Papp (B-A)/Papp (A-B);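 for all read-outs here: 2 h incubation at 37 °C, receiver HBSS with 10 mM Hepes plus 1% BSA, LC-MS/MS of donor and receiver, recovery as receiver plus donor amount over initial donor amount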
# Description: (§3) The overexpression and functional activity of P-glycoprotein (P-gp) in the LLC-PK1-MDR1 cells were rigorously validated through multiple methods.
# (§4) Cells were passaged at 80−90% confluence (every 2−3 days) using trypsin-EDTA solution. […] The culture medium was replaced every other day, including 200 µL culture medium in the apical and 850 µL cell culture medium in the basolateral side. LLC-PK1 MOCK cells were used at passages of 3−30. LLC-PK1-MDR1 cells were cultured and passaged in the same manner as LLC-PK1 cells except at the density of 1 × 10^4 cells per well. LLC-PK1-MDR1 cells were used at passages of 3−25. For LLC-PK1 MOCK cells and LLC-PK1-MDR1 cells, the experiments were performed on the 4th and 7th day after seeding.
# (§5) Monitoring permeability of positive control drugs. […] Samples were collected from the donor well at the start of the incubation (50 µL) as C0, and from the donor and receiver wells at the end of the incubation (50 µL). All samples were stored at - 40 °C for LC-MS/MS analysis.
# (§6) Bidirectional transport experiments. […] The transwell experiments were conducted following above-mentioned procedure. […] When the recovery rate of the tested drug is below 80%, the possibility of intracellular accumulation should be considered. The polycarbonate (PC) membrane where cells are grown should be carefully peeled off from the cell culture medium and placed in 100 µL of HBSS buffer solution. […] The process was carried out on ice to prevent heat-induced degradation, applying a power in the range of 300 W for a total duration of 20 minutes. Thereafter, a quantitative analysis of the intracellular drug was conducted, and the drug recovery rate was recalculated based on this analysis.
# (§7) The apparent permeability coefficient (Papp, cm/s) was calculated for each transport direction, A-B and B-A, using the following equation: Papp=dQ/dt×1/A×C0 where dQ/dt is the permeation rate (µmol/s), A is the surface area of the insert (0.33 cm^2, Corning), and C0 is the initial donor concentration (µM).
# (§8) The efflux ratio (ER) is calculated as the ratio of Papp (B-A)/Papp (A-B). Recovery=TRcumrf+Cdf×VD/Cdi×VD×100% Where TRcumrf is the cumulative transported mass in the receiver chamber at the end of the incubation (nmol), Cdf is the concentration of the drug in the donor chamber at the end of the incubation (μM), VD is the volume of the donor chamber (mL), and Cdi is the initial concentration of the drug in the donor chamber (μM).
# (§9) The method of the bidirectional transport experiment was the same as before.
# LLC-PK1-MDR1 cells [2] = assay: as above; details: LLC-PK1-MDR1, with 5 μM tariquidar vs without
# Description: as §3, §4, §5, §6, §7, §8, §9
# LLC-PK1-MDR1 cells [3] = test system: LLC-PK1-MDR1 cells
# Description: as §3, §4, §5, §6, §7, §8, §9
# [4] = Bidirectional transport across LLC-PK1 MOCK monolayer (Transwell); details: pig; for recovery at 2 h, 2 µM: pH 7.4, Recovery after correction of intracellular accumulation data, cell lysate included, mean±SD, n=3; for efflux ratio at 2 h, 2 µM: LLC-PK1, pH 7.4, ER, Papp (B-A)/Papp (A-B);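 for all read-outs here: compound quantified by LC-MS/MS in donor and receiver wells, efflux ratio as B-A over A-B Papp, recovery relative to initial donor amount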
# [5] = LLC-PK1 MOCK/MDR1 monolayer model, results stated for both cell lines jointly; details: pig
# Description: Monitoring of TEER value and LY permeability. After the LLC-PK1 MOCK/MDR1 cells attach to the Transwell insert, TEER (Transepithelial Electrical Resistance) values were continuously recorded using a cell resistance meter (Beijing JINGONGHONGTAI Technology Co., Ltd). These TEER values represent the mean from six individual inserts (n = 6) measured per group. The TEER measurement and transport experiment were conducted at 37 °C, using a heating plate to maintain the required temperature. The transmembrane resistance was calculated using the formula TEER = (Rtotal-Rblank) × Aarea, where Rblank represents the TEER of the blank chamber.
# The permeability of the Lucifer Yellow CH Dipotassium Salt (LY, 100 μM) across the monolayers was measured in apical-to-basolateral direction to monitor the integrity of the cell monolayer.
# Bidirectional transport experiments. […] The transwell experiments were conducted following above-mentioned procedure.
# in vitro [6] = details: rat, brain homogenate
# Description: (§1) Stocks (10 mM) of test compounds were diluted to 5 μM with plasma or tissue homogenate and dialyzed at 37 °C for 6 hours in a shaking incubator. After incubation aliquots of both plasma or tissue homogenate and buffer from the device were taken and added to equal volumes of blank buffer and plasma or tissue homogenate respectively. Samples were then diluted in acetonitrile containing an internal standard prior to centrifugation and analysis of the supernatants by LC-MS/MS. The fu, plasma was calculated using Equation 1:(1) fu,plasma=Concbuffer chamber/Concsample chamber
# Rat fraction unbound in brain (fu, brain) was determined as the ratio of concentration in buffer to that in brain.
# (§2) Unbound fractions of test drugs in plasma (fu,plasma) and brain tissue (fu,brain). For compounds with existing rat plasma or brain protein-binding data from literature or internal studies, values were directly adopted.
# in vivo = details: rat
# Text: In vivo unbound brain distribution data (Kp,uu,Brain) for 16 drugs and total brain distribution data (Kp,Brain) for 16 drugs was acquired from literature. […] For each tested compound, fifteen rats were randomly divided into five groups of three rats each. […] The time of execution of the rats by CO2 inhalation after administration was optimized according to the in vivo elimination rate to achieve five concentrations of different time points. After the rats were euthanized, cardiac puncture was performed immediately to remove as much whole blood as possible (~7 ml) from the systemic circulation (Quantitatively aliquot 0.2 ml of whole blood for the determination of drug concentration in plasma). Afterwards, the brain tissue was collected immediately and rinsed repeatedly with ice-cold saline 3 times. Then, the surface saline was blotted dry with clean filter paper to remove as much residual drug in the blood vessels as possible. Plasma samples were prepared by centrifugation of the blood samples at 2,500 g for 10 minutes at 4 °C. All brain samples were homogenized by adding 4-fold volume water. All samples were stored at -40 °C before LC-MS/MS analysis. […] The brain tissue partition coefficient (Kp, brain) and brain-to-plasma unbound drug partition ratio (Kp,uu, brain) are calculated according to the following formulas, respectively: Kp,brain=AUC(0−∞,brain)/AUC(0−∞,plasma)Kp,uu,brain=Kp,brain×(fu,tissue/fu,plasma)
# Free brain-to-plasma distribution coefficients (Kp,uu,brain) of 41 drugs. Brain distribution coefficients (Kp,uu,brain) were calculated for 41 drugs. […] Plasma and brain concentration-time profiles were generated, and AUC(0-t) values for both matrices were calculated using WinNolin 8.1. Kp,brain was derived as the ratio of brain-to-plasma AUC(0-t).
# Kp,uu,brain values were computed by normalizing Kp,brain to unbound fractions (fu,plasma and fu,brain).
# in vitro [7] = details: rat, plasma
# Description: as §1, §2
# [8] = design: method as in not given; details: stated without method; ref not given; cited from earlier work
# [9] = cited from earlier work
# [10] = design: method as in Internal data; details: footnote a; ref Internal data; cited from earlier work
# [11] = footnote a; ref Internal data; cited from earlier work
# [12] = LLC-PK1, pH 7.4, Papp A-B, LLC-PK1 MOCK, 2 µM, 2 h, mean ± s, n = 3, BLQ = below 2 nM
# [13] = LLC-PK1 MOCK and LLC-PK1-MDR1 cell monolayers (Transwell), pH 7.4, Recovery after cell lysate extraction, intracellular drug included
# [14] = LLC-PK1 MOCK and LLC-PK1-MDR1 cell monolayers (Transwell), pH 7.4, Recovery, bidirectional transport, uncorrected
# [15] = LLC-PK1 MOCK and LLC-PK1-MDR1 cell monolayers (Transwell), pH 7.4, with bafilomycin A1 1 µM (inhibitor of lysosomal function), Recovery, with 1 µM Bafilomycin A1, bidirectional transport
# [16] = LLC-PK1, pH 7.4, Papp A-B, LLC-PK1-MDR1, 2 µM, 2 h, mean ± s, n = 3
# [17] = LLC-PK1 MOCK cell monolayer (Transwell), B-A, LLC-PK1 MOCK
Structure (SMILES),"recovery at 2 h, 2 µM (in vitro [1]) [%]","Papp A→B at 2 h, 2 µM (P-gp (human MDR1); LLC-PK1, pH 7.4) [×10⁻⁶ cm/s]","Papp B→A at 2 h, 2 µM (P-gp (human MDR1); LLC-PK1, pH 7.4) [×10⁻⁶ cm/s]",recovery (LLC-PK1-MDR1 cells [3]),"Papp B→A at 2 h, 2 µM ([4]; LLC-PK1, pH 7.4) [×10⁻⁶ cm/s]","Papp A→B at 2 h, 2 µM [4, 12] [×10⁻⁶ cm/s]","recovery at 2 µM [5, 13] [%]","recovery at 2 µM [5, 14] [%]","recovery at 2 µM [5, 15] [%]","Papp A→B at 2 h, 2 µM (P-gp (human MDR1); [16]) [×10⁻⁶ cm/s]","fraction unbound at 6 h, 5 µM (in vitro [6])","fraction unbound at 6 h, 5 µM (in vitro [7])","recovery at 2 h, 2 µM [4, 17] [%]",pKa [8],"efflux ratio at 2 h, 2 µM (P-gp (human MDR1))","efflux ratio at 2 h, 2 µM ([4]; LLC-PK1 MOCK)",other results
C[C@H]1O[C@@H](O[C@H]2[C@@H](O)C[C@H](O[C@H]3[C@@H](O)C[C@H](O[C@H]4CC[C@@]5(C)[C@H](CC[C@@H]6[C@@H]5C[C@@H](O)[C@]5(C)[C@@H](C7=CC(=O)OC7)CC[C@]65O)C4)O[C@@H]3C)O[C@@H]2C)C[C@H](O)[C@@H]1O [Digoxin],95 ± 5.24,1.15 ± 0.28,7.79 ± 0.91,109 ± 16%,1.75 ± 0.07,1.91 ± 0.13,–,–,–,–,–,–,–,–,–,–,"increase in apical-to-basolateral (A→B) permeability (LLC-PK1-MDR1 cells [2]): 3.97 fold; Papp at 2 h, 2 µM ([4]; LLC-PK1, pH 7.4): 2.17 ×10⁻⁶ cm/s; Papp at 2 h, 2 µM ([4]; LLC-PK1, pH 7.4, with tariquidar 5 µM (P-gp inhibitor)): 2.1 ×10⁻⁶ cm/s"
CCN(CC)CCNC(=O)c1c(C)[nH]c(/C=C2\C(=O)Nc3ccc(F)cc32)c1C [Sunitinib],–,–,21.8 ± 1.08,116% and 97%,6.21 ± 0.2,9.31 ± 0.74,> 80,< 80,80 to 120,2.23 ± 0.21,< 0.01,0.017,89.2 ± 8.92,> 7,–,–,"Kp (in vivo; SD, iv, 1 mg/kg, Kp, Brain): 0.965; Kp (in vivo; SD, iv, 1 mg/kg, Kp,uu,Brian): 0.563"
Fc1ccc([C@@H]2CCNC[C@H]2COc2ccc3c(c2)OCO3)cc1 [Paroxetine],54.1 ± 1.86,–,10.9 ± 0.35,–,14.8 ± 0.57,7.65 ± 0.2,> 80,< 80,80 to 120,5.15 ± 0.55,< 0.01,0.021,92.7 ± 4.03,> 7,2.11,1.93,"Kp (in vivo; Kp,uu,Brian): 1.57; Kp, Brain ([9]; ref O’Brien et al. [2012]): 3.307; recovery at 2 h, 2 µM ([4]; LLC-PK1 MOCK cell monolayer (Transwell), A-B, LLC-PK1 MOCK): 97.6 ± 1.99%"
Cc1cccc([C@H](C)c2cnc[nH]2)c1C [Dexmedetomidine],–,–,29.1 ± 3.62,–,35.2 ± 2.56,30.8 ± 0.61,–,–,–,30.2 ± 3.4,–,–,–,–,–,–,"Protein binding in brain tissue [10]: 86.7^a %; Kp uu (in vivo): 2.21; Kp, Brain ([9]; footnote a, ref Internal data): 0.80^a; Protein binding in plasma [11]: 95.2^a %"
COc1ccc2cc1Oc1ccc(cc1)C[C@H]1c3cc(c(OC)cc3CCN1C)Oc1c(OC)c(OC)cc3c1[C@H](C2)N(C)CC3 [Tetrandrine],–,1.55 ± 0.29,13 ± 2.24,–,4.19 ± 0.77,–,–,–,–,–,–,–,–,> 7,8.4,1.33,"recovery at 2 µM ([5]; pH 7.4, Recovery after cell lysate extraction, intracellular drug included): > 80%; recovery at 2 µM ([5]; pH 7.4, Recovery, bidirectional transport, uncorrected): < 80%; recovery at 2 µM ([5]; pH 7.4, Recovery, with 1 µM Bafilomycin A1, bidirectional transport): 80 to 120%; Kp, Brain ([9]; ref Wang [2024]): 24.3; Kp,uu,Brian ([9]; ref Wang [2024]): 0.80; Papp A→B at 2 h, 2 µM ([4]; LLC-PK1, pH 7.4): 3.15 ± 0.23 ×10⁻⁶ cm/s; recovery at 2 h, 2 µM ([4]; A-B, LLC-PK1 MOCK): 54.1 ± 7.24%; recovery at 2 h, 2 µM ([4]; B-A, LLC-PK1 MOCK): 93.5 ± 6.72%"

# Reference: PMC12667295, “A surrogate barrier model for high-throughput blood-brain barrier permeability prediction: integrating LLC-PK1-MOCK/MDR1 Cells and lysosomal trapping correction” (Drug Delivery, 2025)
